pIC50: −log10 of the molar value. Structures can show the parent of a compound that is named as a salt.

The experiment concerns the target T1, human TRPV4 (Homo sapiens, UniProt Q9HBA0).
T1 construct: expressed in transfected cells; host or cells: HEK-293-MSR-II cells transduced with 1% BacMam virus
Kind of experiment: Ligand-gated assay (Fluo4 calcium, FLIPR; inhibition of agonist-induced activation). As to conditions: HEK-293-MSR-II cells transduced with BacMam human TRPV4; agonist at EC80. It counts as cell-based. A digest of the protocol: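 Agonist (EC80) response read on FLIPR as Fluo-4 (2 uM) fluorescence after 10-min room-temperature compound exposure in HBSS/HEPES pH 7.4 with 0.01% Chaps. Cells: HEK-293-MSR-II expressing human TRPV4 via BacMam; output is IC50 of inhibition.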

T1 sequence (Q9HBA0 whole entry): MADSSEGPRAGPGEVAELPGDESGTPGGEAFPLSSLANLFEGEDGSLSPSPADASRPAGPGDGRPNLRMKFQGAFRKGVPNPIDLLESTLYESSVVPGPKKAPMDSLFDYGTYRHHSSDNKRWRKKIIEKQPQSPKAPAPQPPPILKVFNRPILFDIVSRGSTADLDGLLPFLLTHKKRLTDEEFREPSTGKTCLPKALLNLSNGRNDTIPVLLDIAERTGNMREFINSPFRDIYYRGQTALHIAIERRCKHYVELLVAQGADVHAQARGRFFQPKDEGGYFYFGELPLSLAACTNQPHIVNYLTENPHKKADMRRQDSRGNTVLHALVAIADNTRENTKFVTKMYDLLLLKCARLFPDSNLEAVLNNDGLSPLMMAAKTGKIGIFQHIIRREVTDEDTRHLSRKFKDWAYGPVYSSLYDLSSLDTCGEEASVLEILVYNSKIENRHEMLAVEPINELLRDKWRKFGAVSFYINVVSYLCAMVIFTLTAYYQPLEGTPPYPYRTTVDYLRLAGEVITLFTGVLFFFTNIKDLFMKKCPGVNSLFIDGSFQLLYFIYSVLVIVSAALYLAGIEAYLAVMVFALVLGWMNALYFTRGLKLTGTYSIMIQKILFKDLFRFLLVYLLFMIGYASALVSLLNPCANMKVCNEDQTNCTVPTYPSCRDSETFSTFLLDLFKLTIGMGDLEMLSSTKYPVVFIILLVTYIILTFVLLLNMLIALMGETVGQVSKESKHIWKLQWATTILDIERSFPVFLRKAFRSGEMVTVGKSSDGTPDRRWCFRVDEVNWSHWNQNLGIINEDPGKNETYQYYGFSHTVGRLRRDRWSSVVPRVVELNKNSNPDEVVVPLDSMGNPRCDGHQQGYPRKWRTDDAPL

As usually defined, the pIC50 is the IC50 on a negative log10 scale, so that one unit is a factor of ten. For the compound `N#Cc1ccc2ncn(C[C@H]3CCC[C@]4(C3)CN(Cc3cc(-c5ccc(Cl)cc5)no3)C(=O)O4)c2c1` [Example 67, 1-[((5S,7S)-3-{[3-(4-chlorophenyl)-5-isoxazolyl]methyl}-2-oxo-1-oxa-3-azaspiro[4.5]dec-7-yl)methyl]-1H-benzimidazole-6-carbonitrile], the pIC50 was 7.30 to 8.00. Then `N#Cc1ccc2ncn(C[C@H]3CCC[C@]4(C3)CN(Cc3cc(-c5ccccc5)no3)C(=O)O4)c2c1` [Example 68, 1-({(5S,7S)-2-oxo-3-[(3-phenyl-5-isoxazolyl)methyl]-1-oxa-3-azaspiro[4.5]dec-7-yl}methyl)-1H-benzimidazole-6-carbonitrile], with 7.30 to 8.00. In the case of `Cn1nc(CN2C[C@@]3(CCC[C@H](Cn4cnc5ccc(C#N)cc54)C3)OC2=O)cc1-c1ccccc1` [Example 69, 1-({(5S,7S)-3-[(1-methyl-5-phenyl-1H-pyrazol-3-yl)methyl]-2-oxo-1-oxa-3-azaspiro[4.5]dec-7-yl}methyl)-1H-benzimidazole-6-carbonitrile], the negative logarithm of the IC50 (pIC50) was 6.30 to 7.30. As to `COc1ccc(-c2csc(CN3C[C@@]4(CCC[C@H](Cn5cnc6ccc(C#N)cc65)C4)OC3=O)n2)cc1C` [Example 70, 1-{[(5S,7S)-3-({4-[3-methyl-4-(methyloxy)phenyl]-1,3-thiazol-2-yl}methyl)-2-oxo-1-oxa-3-azaspiro[4.5]dec-7-yl]methyl}-1H-benzimidazole-6-carbonitrile], the pIC50 is 8.00 to 10.00. For the compound `N#Cc1ccc2ncn(C[C@H]3CCC[C@]4(C3)CN(Cc3nnc(-c5ccccc5)[nH]3)C(=O)O4)c2c1` [Example 71, 1-({(5S,7S)-2-oxo-3-[(3-phenyl-1H-1,2,4-triazol-5-yl)methyl]-1-oxa-3-azaspiro[4.5]dec-7-yl}methyl)-1H-benzimidazole-6-carbonitrile], the pIC50 is 6.30 to 7.30. Then `N#Cc1ccc2ncn(C[C@H]3CCC[C@]4(C3)CN(Cc3cncc(-c5ccccc5)c3)C(=O)O4)c2c1` [Example 72, 1-({(5S,7S)-2-oxo-3-[(5-phenyl-3-pyridinyl)methyl]-1-oxa-3-azaspiro[4.5]dec-7-yl}methyl)-1H-benzimidazole-6-carbonitrile trifluoroacetate], with 6.30 to 7.30; and `CC(C)(CN1C[C@@]2(CCC[C@H](Cn3cnc4c(Cl)cc(C#N)cc43)C2)OC1=O)c1nc(-c2ccccc2)no1` [Example 73, 4-chloro-1-({(5S,7S)-3-[2-methyl-2-(3-phenyl-1,2,4-oxadiazol-5-yl)propyl]-2-oxo-1-oxa-3-azaspiro[4.5]dec-7-yl}methyl)-1H-benzimidazole-6-carbonitrile], with 8.00 to 10.00; and `Cc1noc(C(C)(C)CN2C[C@@]3(CCC[C@H](Cn4cnc5ccc(C#N)cc54)C3)OC2=O)n1` [Example 74, 1-({(5S,7S)-3-[2-methyl-2-(3-methyl-1,2,4-oxadiazol-5-yl)propyl]-2-oxo-1-oxa-3-azaspiro[4.5]dec-7-yl}methyl)-1H-benzimidazole-6-carbonitrile], with 7.30 to 8.00. As to `CC(C)(CN1C[C@@]2(CCC[C@H](Cn3cnc4ccc(C#N)cc43)C2)OC1=O)c1nc(-c2ccccc2)no1` [Example 75, 1-({(5S,7S)-3-[2-methyl-2-(3-phenyl-1,2,4-oxadiazol-5-yl)propyl]-2-oxo-1-oxa-3-azaspiro[4.5]dec-7-yl}methyl)-1H-benzimidazole-6-carbonitrile], the negative-log IC50 (pIC50) is 8.00 to 10.00. To `CC(C)c1noc(C(C)(C)CN2C[C@@]3(CCC[C@H](Cn4cnc5ccc(C#N)cc54)C3)OC2=O)n1` [Example 76, 1-[((5S,7S)-3-{2-methyl-2-[3-(1-methylethyl)-1,2,4-oxadiazol-5-yl]propyl}-2-oxo-1-oxa-3-azaspiro[4.5]dec-7-yl)methyl]-1H-benzimidazole-6-carbonitrile] belongs 8.00 to 10.00. To `CC(C)(CN1C[C@@]2(CCC[C@H](Cn3cnc4ccc(C#N)cc43)C2)OC1=O)c1nc(C2CCCC2)no1` [Example 77, 1-({(5S,7S)-3-[2-(3-cyclopentyl-1,2,4-oxadiazol-5-yl)-2-methylpropyl]-2-oxo-1-oxa-3-azaspiro[4.5]dec-7-yl}methyl)-1H-benzimidazole-6-carbonitrile] belongs 8.00 to 10.00; to `CC(C)(CN1C[C@@]2(CCC[C@H](Cn3cnc4ccc(C#N)cc43)C2)OC1=O)c1nc(-c2cncnc2)no1` [Example 78, 1-[((5S,7S)-3-{2-methyl-2-[3-(5-pyrimidinyl)-1,2,4-oxadiazol-5-yl]propyl}-2-oxo-1-oxa-3-azaspiro[4.5]dec-7-yl)methyl]-1H-benzimidazole-6-carbonitrile], 8.00 to 10.00; to `CC(C)(C)c1noc(C(C)(C)CN2C[C@@]3(CCC[C@H](Cn4cnc5ccc(C#N)cc54)C3)OC2=O)n1` [Example 79, 1-[((5S,7S)-3-{2-[3-(1,1-dimethylethyl)-1,2,4-oxadiazol-5-yl]-2-methylpropyl}-2-oxo-1-oxa-3-azaspiro[4.5]dec-7-yl)methyl]-1H-benzimidazole-6-carbonitrile], 8.00 to 10.00. For `CC(C)(CN1C[C@@]2(CCC[C@H](Cn3cnc4ccc(C#N)cc43)C2)OC1=O)c1nc(C(F)(F)F)no1` [Example 80, 1-[((5S,7S)-3-{2-methyl-2-[3-(trifluoromethyl)-1,2,4-oxadiazol-5-yl]propyl}-2-oxo-1-oxa-3-azaspiro[4.5]dec-7-yl)methyl]-1H-benzimidazole-6-carbonitrile], the pIC50 is 8.00 to 10.00. On to `COCc1noc(C(C)(C)CN2C[C@@]3(CCC[C@H](Cn4cnc5ccc(C#N)cc54)C3)OC2=O)n1` [Example 81, 1-{[(5S,7S)-3-(2-methyl-2-{3-[(methyloxy)methyl]-1,2,4-oxadiazol-5-yl}propyl)-2-oxo-1-oxa-3-azaspiro[4.5]dec-7-yl]methyl}-1H-benzimidazole-6-carbonitrile], for which the pIC50 was 8.00 to 10.00. To `CC(C)Cc1noc(C(C)(C)CN2C[C@@]3(CCC[C@H](Cn4cnc5ccc(C#N)cc54)C3)OC2=O)n1` [Example 82, 1-[((5S,7S)-3-{2-methyl-2-[3-(2-methylpropyl)-1,2,4-oxadiazol-5-yl]propyl}-2-oxo-1-oxa-3-azaspiro[4.5]dec-7-yl)methyl]-1H-benzimidazole-6-carbonitrile] belongs 8.00 to 10.00; to `CC(C)OCc1noc(C(C)(C)CN2C[C@@]3(CCC[C@H](Cn4cnc5ccc(C#N)cc54)C3)OC2=O)n1` [Example 83, 1-({(5S,7S)-3-[2-methyl-2-(3-{[(1-methylethyl)oxy]methyl}-1,2,4-oxadiazol-5-yl)propyl]-2-oxo-1-oxa-3-azaspiro[4.5]dec-7-yl}methyl)-1H-benzimidazole-6-carbonitrile], 8.00 to 10.00; to `N#Cc1cc(Cl)c2ncn(C[C@H]3CCC[C@]4(C3)CN(CC3(c5nc(-c6ccccc6)no5)CCOCC3)C(=O)O4)c2c1` [Example 84, 4-chloro-1-[((5S,7S)-2-oxo-3-{[4-(3-phenyl-1,2,4-oxadiazol-5-yl)tetrahydro-2H-pyran-4-yl]methyl}-1-oxa-3-azaspiro[4.5]dec-7-yl)methyl]-1H-benzimidazole-6-carbonitrile], 8.00 to 10.00.

Regarding `N#Cc1cc(Cl)c2ncn(C[C@H]3CCC[C@]4(C3)CN(CC3(c5nc(C6CCCC6)no5)CCOCC3)C(=O)O4)c2c1` [Example 85, 4-chloro-1-[((5S,7S)-3-{[4-(3-cyclopentyl-1,2,4-oxadiazol-5-yl)tetrahydro-2H-pyran-4-yl]methyl}-2-oxo-1-oxa-3-azaspiro[4.5]dec-7-yl)methyl]-1H-benzimidazole-6-carbonitrile], the pIC50 is 8.00 to 10.00.

With `N#Cc1ccc2ncn(C[C@H]3CCC[C@]4(C3)CN(CC3CCN(c5ccccn5)C3)C(=O)O4)c2c1` (stereo partly drawn) [Example 86, 1-[((5S,7S)-2-oxo-3-{[1-(2-pyridinyl)-3-pyrrolidinyl]methyl}-1-oxa-3-azaspiro[4.5]dec-7-yl)methyl]-1H-benzimidazole-6-carbonitrile], the pIC50 is 6.30 to 7.30.

With `N#Cc1ccc2ncn(C[C@H]3CCC[C@]4(C3)CN(Cc3cn(-c5ccccc5)nn3)C(=O)O4)c2c1` [Example 87, 1-({(5S,7S)-2-oxo-3-[(1-phenyl-1H-1,2,3-triazol-4-yl)methyl]-1-oxa-3-azaspiro[4.5]dec-7-yl}methyl]-1H-benzimidazole-6-carbonitrile], the pIC50 was 7.30 to 8.00. On to `N#Cc1ccc(-n2cc(CN3C[C@@]4(CCC[C@H](Cn5cnc6ccc(C#N)cc65)C4)OC3=O)nn2)cc1` [Example 88, 1-[((5S,7S)-3-{[1-(4-cyanophenyl)-1H-1,2,3-triazol-4-yl]methyl}-2-oxo-1-oxa-3-azaspiro[4.5]dec-7-yl)methyl]-1H-benzimidazole-6-carbonitrile], for which the pIC50 is 6.30 to 7.30.

Turning to `N#Cc1ccc2ncn(C[C@H]3CCC[C@]4(C3)CN(Cc3cn(-c5ccc(Cl)cc5)nn3)C(=O)O4)c2c1` [Example 89], the pIC50 is 7.30 to 8.00. To `N#Cc1ccc2ncn(C[C@H]3CCC[C@]4(C3)CN(Cc3cn(-c5cccc(Cl)c5)nn3)C(=O)O4)c2c1` [Example 90, 1-[((5S,7S)-3-{[1-(3-chlorophenyl)-1H-1,2,3-triazol-4-yl]methyl}-2-oxo-1-oxa-3-azaspiro[4.5]dec-7-yl)methyl]-1H-benzimidazole-6-carbonitrile] belongs 8.00 to 10.00; to `Cc1ccc(-n2cc(CN3C[C@@]4(CCC[C@H](Cn5cnc6ccc(C#N)cc65)C4)OC3=O)nn2)cc1` [Example 91, 1-[((5S,7S)-3-{[1-(4-methylphenyl)-1H-1,2,3-triazol-4-yl]methyl}-2-oxo-1-oxa-3-azaspiro[4.5]dec-7-yl)methyl]-1H-benzimidazole-6-carbonitrile], 6.30 to 7.30; to `N#Cc1cccc(-n2cc(CN3C[C@@]4(CCC[C@H](Cn5cnc6ccc(C#N)cc65)C4)OC3=O)nn2)c1` [Example 92, 1-[((5S,7S)-3-{[1-(3-cyanophenyl)-1H-1,2,3-triazol-4-yl]methyl}-2-oxo-1-oxa-3-azaspiro[4.5]dec-7-yl)methyl]-1H-benzimidazole-6-carbonitrile], 7.30 to 8.00.
